Measured values published in the NIST ThermoML archive (doi:10.1016/j.fluid.2007.12.007).

Experiments:
[1] = xn = mol fraction of the nth substance listed; conditions: 101 kPa, Liquid
[2] = 101.33 kPa, Liquid

CC(O)CCO (stereo not given) [1,3-butanediol] + NC=O
[1]
Conditions	speed of sound [m/s]	viscosity [mPa·s]
293.15 K, x2 = 0.1061	1539	99.92
293.15 K, x2 = 0.2004	1536.3	78.22
293.15 K, x2 = 0.3068	1537.2	59.74
293.15 K, x2 = 0.4026	1538.5	46.12
293.15 K, x2 = 0.5033	1543.7	34.62
293.15 K, x2 = 0.6046	1550.4	25.02
293.15 K, x2 = 0.7013	1561.2	17.54
293.15 K, x2 = 0.8073	1577.3	10.47
293.15 K, x2 = 0.9058	1596.6	6.546
298.15 K, x2 = 0.1061	1521.7	74.72
298.15 K, x2 = 0.2004	1518.2	57.5
298.15 K, x2 = 0.3068	1518.3	43.1
298.15 K, x2 = 0.4026	1519.5	32.2
298.15 K, x2 = 0.5033	1524.6	23.74
298.15 K, x2 = 0.6046	1531.3	17
298.15 K, x2 = 0.7013	1542.5	12
298.15 K, x2 = 0.8073	1559.5	7.526
298.15 K, x2 = 0.9058	1580.2	5.001
303.15 K, x2 = 0.1061	1503.9	53.07
303.15 K, x2 = 0.2004	1499.8	40.31
303.15 K, x2 = 0.3068	1499.9	28.9
303.15 K, x2 = 0.4026	1501.1	21.09
303.15 K, x2 = 0.5033	1506.5	15.04
303.15 K, x2 = 0.6046	1513.8	10.33
303.15 K, x2 = 0.7013	1525.7	7.023
303.15 K, x2 = 0.8073	1543.8	4.543
303.15 K, x2 = 0.9058	1566.3	3.526
308.15 K, x2 = 0.1061	1488.7	40.36
308.15 K, x2 = 0.2004	1484.2	30.96
308.15 K, x2 = 0.3068	1483.6	21.98
308.15 K, x2 = 0.4026	1484.8	15.66
308.15 K, x2 = 0.5033	1490.1	11.25
308.15 K, x2 = 0.6046	1497.6	7.455
308.15 K, x2 = 0.7013	1509.9	5.329
308.15 K, x2 = 0.8073	1528.7	3.578
308.15 K, x2 = 0.9058	1552.5	2.702
313.15 K, x2 = 0.1061	1475.5	31.06
313.15 K, x2 = 0.2004	1470.2	24.23
313.15 K, x2 = 0.3068	1468.8	17.48
313.15 K, x2 = 0.4026	1469.6	12.14
313.15 K, x2 = 0.5033	1474.7	8.414
313.15 K, x2 = 0.6046	1482.1	6.181
313.15 K, x2 = 0.7013	1494.6	4.545
313.15 K, x2 = 0.8073	1513.9	3.229
313.15 K, x2 = 0.9058	1538.9	2.626
318.15 K, x2 = 0.1061	1463.3	24.04
318.15 K, x2 = 0.2004	1457	18.62
318.15 K, x2 = 0.3068	1454.8	13.82
318.15 K, x2 = 0.4026	1455.1	9.999
318.15 K, x2 = 0.5033	1459.9	6.803
318.15 K, x2 = 0.6046	1467.1	4.697
318.15 K, x2 = 0.7013	1479.7	3.299
318.15 K, x2 = 0.8073	1499.4	2.478
318.15 K, x2 = 0.9058	1525.5	2.257

CC(O)CCO (stereo not given) [1,3-butanediol]
[2]
Conditions	speed of sound [m/s]	viscosity [mPa·s]
293.15 K	1539.6	130.32
298.15 K	1523.4	97.26
303.15 K	1506.3	69.84
308.15 K	1492.5	52.54
313.15 K	1480.8	39.42
318.15 K	1470.3	30.51
